Results as given in US7169815B2, “3-methoxybenzyl thiourea derivatives and improved lipid compositions containing same” (The United States of America as represented by the …, priority 2000, dated 2007).

Columns and labels:
[1] = OSI test of jojoba oil mixed with additive; details: 110° C.
Description: (§1) A presently preferred method of determining oxidative stability of lipids and oils employs the Oxidative Stability Index (OSI), which determines the oxidative stability of an oil by passing air through a sample under stringent temperature control. (Firestone, Oxidative Stability Index (OSI): Official Methods of Recommended Practices of the American Oil Chemists' Society (AOCS), 4th Ed. American Oil Chemists Society, Champaign, Ill., AOCS Official Method Cd 12b-92, 1993.) In this method, a stream of air is passed through the oil sample, which aids in the rapid degradation of the triglyceride into volatile organic acids. The air stream flushes the volatile acids from the oil into a conductivity cell containing water where the acids are solubilized. These acids, once dissolved in the water solution, disassociate into ions, thus changing the conductivity of the water. Therefore, a continuous measure of the conductivity of the cell by computer will indicate when a rapid rise in the conductivity occurs that corresponds to the induction point, oxidative failure of the sample. The time to the induction point is the OSI time. […] Saturated fatty acid methyl ester (FAME) standards commercially available from Alltech Associates (Deerfield, Ill.) may be used to calibrate the OSI determinations.
(§2) OSI determinations may be performed on an oxidative stability instrument manufactured by Omnion (Rockland, Mass.) using the AOCS method described in the above-disclosed Firestone reference. Lipid or oil samples may be run at 110° C. and FAMEs may be tested at 90° C., with air flow set at 35 kPa with a resulting velocity of about 140 ml/min. A presently preferred method for determining OSI values is described by T. A. Isbell et al., “Oxidative Stability Index of Vegetable Oils in Binary Mixtures with Meadowfoam Oil,” Industrial Crops and Products 9, 115–123 (1999).
(§3) Unless otherwise stated, Oxidative Stability Index (OSI) values were determined on 5.00 ±0.05 g lipid or oil samples in triplicate according to AOCS Official Method Cd 12b-92 (AOCS, 1993) at 90° C., 110° C. and/or 130° C. on an oxidative stability instrument manufactured by Omnion (Rockland, Mass.). Details of the procedure have been published by Isbell et al., “Oxidative Stability Index of Vegetable Oils in Binary Mixtures with Meadowfoam Oil,” Ind. Crops Prod. 9, 115–123 (1999). When compounds of the present invention were added to the lipid or oil sample being tested, the compounds (0.1% to 1.0% by weight) were added to the test lipid or oil (20 g) and dissolved or dispersed at room temperature before triplicate 5.00 g samples of lipid or oil with an added compound of the invention were weighed into the OSI test tube. […]

[2] = in vivo; details: Artemia salina (brine shrimp), in vivo, other: exposure in seawater in microplate wells
Experimental: (§4) Brine shrimp eggs (Artemia salina) were obtained from Brine Shrimp Direct, Ogden, Utah and stored at 10° C. until used. Eggs (400 mg) were added to 1 l of deionized water containing 40 g of sea salts (Sigma Chemical Co., St. Louis, Mo.).
(§5) Serial dilutions were performed in 100 μl of seawater in triplicate in the wells of a 96-well microplate to give appropriate concentrations. Control wells for both water and DMSO were included with each experiment. […] The number of non-motile, and the total number of, naupli were counted in each well using a binocular microscope (10×).

[3] = system: Brine Shrimp (Artemia Salina); assay: in vivo; details: as Table 7 shows
Experimental: as §4, §5

[4] = OSI test of milkweed seed oil mixed with additive; details: 1.0% additive, 130° C.
Description: (§6) A presently preferred method of determining oxidative stability of lipids and oils employs the Oxidative Stability Index (OSI), which determines the oxidative stability of an oil by passing air through a sample under stringent temperature control. (Firestone, Oxidative Stability Index (OSI): Official Methods of Recommended Practices of the American Oil Chemists' Society (AOCS), 4th Ed. American Oil Chemists Society, Champaign, Ill., AOCS Official Method Cd 12b-92, 1993.) In this method, a stream of air is passed through the oil sample, which aids in the rapid degradation of the triglyceride into volatile organic acids. The air stream flushes the volatile acids from the oil into a conductivity cell containing water where the acids are solubilized. These acids, once dissolved in the water solution, disassociate into ions, thus changing the conductivity of the water. Therefore, a continuous measure of the conductivity of the cell by computer will indicate when a rapid rise in the conductivity occurs that corresponds to the induction point, oxidative failure of the sample. […]
(§7) Unless otherwise stated, Oxidative Stability Index (OSI) values were determined on 5.00 ±0.05 g lipid or oil samples in triplicate according to AOCS Official Method Cd 12b-92 (AOCS, 1993) at 90° C., 110° C. and/or 130° C. on an oxidative stability instrument manufactured by Omnion (Rockland, Mass.). […]

[5] = Oxidative Stability by Rotating Pressure Vessel (RBOT) of refined meadowfoam seed oil plus thiourea compounds
Description: Another presently preferred method of determining oxidative stability of lipids and oils employs the Oxidative Stability by Rotating Pressure Vessel (RBOT) test. In this test, oxidative stability, determined according to the ASTM D2272-98 test method (ASTM, 2001, “Standard Test Method for Oxidation Stability of Steam Turbine Oils by Rotating Pressure Vessel,” in Book of Standards, Vol. 05.01., American Society for Testing and Materials, West Conshohocken, Pa.), measures the time for oxygen pressure to decrease in a closed stainless steel vessel containing a lipid or oil when heated with a copper coil catalyst. Oxygen taken up by the lipid or oil during the reaction is an indication of oil degradation.
In these experiments, Oxidative Stability by Rotating Pressure Vessel (RBOT) tests were performed with different 3-methoxybenzyl thiourea compounds synthesized in Example 3 that were mixed in different quantities with different mono- and polyunsaturated vegetable oils. Hexane was used to clean and store the copper coils, but all other aspects of the Oxidative Stability by Rotating Pressure Vessel (RBOT) test were the same as in the standard ASTM D2272–98 test method (ASTM, 2001, “Standard Test Method for Oxidation Stability of Steam Turbine Oils by Rotating Pressure Vessel,” in Book of Standards, Vol. 05.01., American Society for Testing and Materials, West Conshohocken, Pa.).

[6] = OSI test of unrefined (crude) meadowfoam seed oil, alone or mixed with additive; details: 110° C.
Description: as §1, §2, §3

[7] = OSI test of high oleic sunflower oil mixed with additive; details: 1.0% additive, 130° C.
Description: as §6, §7

Q: With `COc1cccc(CNC(=S)NCc2cccc(OC)c2)c1` [1,3-di(3-methoxybenzyl) thiourea] as the compound, how does the OSI Time ([1]; 0.1% additive) read?
A: 64.2 h

Q: And the “improvement of OSI time compared to jojoba oil alone” value ([1]; 0.1% additive)?
A: 30%

Q: What about the OSI Time ([1]; 1% additive) of the same compound?
A: 168 h

Q: And the “improvement of OSI time compared to jojoba oil alone” value ([1]; 1% additive)?
A: 241%

Q: What about the LC50 at 24 h [2] of the same compound?
A: > 1000 µg/mL

Q: And the “toxicity against brine shrimp, in words” value [3]?
A: very low

Q: And the OSI Time [4]?
A: 2.78 h

Q: What about the “improvement of OSI time compared to milkweed oil alone” value [4] of the same compound?
A: 654%

Q: What about the “Oxidative Stability (RBOT)” value ([5]; Refined Meadowfoam Seed Oil plus 0.05% compound) of the same compound?
A: 33 min

Q: And the “Oxidative Stability (RBOT)” value ([5]; Refined Meadowfoam Seed Oil plus 0.1% compound)?
A: 40 min

Q: What about the “Oxidative Stability (RBOT)” value ([5]; Refined Meadowfoam Seed Oil plus 0.2% compound) of the same compound?
A: 41 min

Q: What about the “Oxidative Stability (RBOT)” value ([5]; Refined Meadowfoam Seed Oil plus 1.0% compound) of the same compound?
A: 41 min

Q: What about the “Oxidative stability in the RBOT test, in words” value ([5]; addition of 0.1% compound) of the same compound?
A: doubled

Q: And the OSI Time ([6]; 0.1% additive)?
A: 76.4 h

Q: What about the “improvement of OSI time compared to meadowfoam oil alone” value ([6]; 0.1% additive) of the same compound?
A: 15%

Q: What about the OSI Time ([6]; 1% additive) of the same compound?
A: 211 h

Q: And the “improvement of OSI time compared to meadowfoam oil alone” value ([6]; 1% additive)?
A: 218%

Q: And the OSI Time [7]?
A: 157 h

Q: And the “improvement of OSI time compared to sunflower oil alone” value [7]?
A: 1720%
